This is an account of results in patent US5242934A, “Method for treatment of neurodegenerative diseases” (R. J. Reynolds Tobacco Company, priority 1992, dated 1993).

Assay [1] relates to synaptosomes from the striatal area of rat brain. The assay is described as follows: [3H]-dopamine release from rat striatal synaptosomes. Type of assay: biochemical, Sprague-Dawley rats. Particulars: 0.2 ml of a 20 μM solution of ligand, relative to equal concentration of S(-) nicotine. Here is the method:
Dopamine release was measured by preparing synaptosomes from the striatal area of rat brain obtained from Sprague-Dawley rats generally according to the procedures set forth by Nagy, et al., J. Neurochem., Vol. 43, pp. 1114-1123 (1984). Striata from 4 rats were homogenized in 2 ml of 0.32M sucrose buffered with 5 mM HEPES (pH 7.5), using a glass-teflon tissue grinder. The homogenate was diluted to 5 ml with additional homogenization solution and centrifuged at 1000×g for 10 min. This procedure was repeated on the new pellet and the resulting supernatant was centrifuged at 12,000×g for 20 min. […] Using this method, 30 to 90 percent of the dopamine was taken up into the synaptosomes, as determined by scintillation counting following filtration through glass fiber filters soaked with 0.5 percent polyethyleneimine. […] After the addition of a 0.2 ml of a 20 μM solution of ligand, the perfusate was collected into scintillation vials at 1 min. intervals and the dopamine released was quantified by scintillation counting. Peaks of radioactivity released above background were summed and the average basal release during that time was subtracted from the total. Release was expressed as a percentage of release obtained with an equal concentration of S(-) nicotine.

Assay [2] has as its target high affinity nicotinic receptors. The assay is described as follows: Inhibition of L-[3H]nicotine binding to mouse brain membrane preparations. Also on record: species or system Mice (DBA strain). The note with it: mouse brain membranes, 2 hr incubation at 4° C., 10 nM L-[3H]nicotine, Ki calculated from IC50 by method of Cheng et al. On the procedure:
Mice (DBA strain) were maintained on a 12 hour light/dark cycle and were allowed free access to water and food supplied by Wayne Lab Blox, Madison, Wis. Animals used in the present studies were 60 to 90 days of age and weighed 20 to 25 g. Brain membrane preparations were obtained from pooled brain tissue of both males and females.
Mice were killed by cervical dislocation. Brains were removed and placed on an ice-cold platform. […] Protein was determined by the method of Lowry, et al., J. Biol. Chem., Vol. 193, pp. 265-275 (1951), using bovine serum albumin as the standard.
The binding of L-[^3 H]nicotine was measured using a modification of the method of Romano, et al., Science, Vol. 210, pp. 647-650 (1980) as described previously by Marks, et al., Mol. Pharmacol., Vol. 30, pp. 427-436 (1986). The binding of L-[^3 H]nicotine was measured using a 2 hr. incubation at 4° C. […] Nonspecific binding was determined by inclusion of 10 μM nonradioactive nicotine in the incubations. The inhibition of L-[^3 H]nicotine binding by test compounds was determined by including one of eight different concentrations of the test compound in the incubation. […] Inhibition constants (Ki values) were calculated from the IC50 values using the method of Cheng, et al., Biochem. Pharmacol., Vol. 22, pp. 3099-3108 (1973). […]

As for `CN1CCCC1c1ccncc1` (centres unmarked) [gamma-nicotine], the “Dopamine Release (Percent release relative to S(-) nicotine)” value in assay [1] came to 45%. The Ki in assay [2] is 1100 ± 100 nM.

The term Ki denotes the equilibrium dissociation constant of an inhibitor or competing ligand from its target.
